Results: BigSolDB 2.1

CCc1cccc(CC)c1/N=C(C)/C=C(/C)Nc1c(CC)cccc1CC
solubility (mole fraction)
Details	268.15 K	273.15 K	278.15 K	283.15 K	288.15 K	293.15 K	298.15 K	303.15 K	308.15 K	313.15 K
in THF	0.134	0.147	0.164	0.186	0.213	0.246	0.282	0.319	–	–
in diethyl ether	0.0732	0.0961	0.123	0.152	0.184	0.215	0.248	0.283	–	–
in ethanol	0.00158	0.00186	0.0022	0.00258	0.00315	0.00369	0.00476	0.00595	0.00738	0.00964
in methanol	0.0003	0.00037	0.00047	0.00058	0.00072	0.00089	0.0011	0.00138	0.00173	0.0022
in n-hexane	0.0373	0.0478	0.0609	0.0769	0.0964	0.12	0.148	0.182	0.223	0.271
in toluene	0.147	0.162	0.178	0.196	0.216	0.236	0.259	0.284	0.312	0.342
